Experimental data: patent publication US20220002283A1 (Mylan Laboratories Limited, priority 2019, published 2022)
Blank lines part the entries; values can stand above or below the compound they belong to.

How the values were obtained:
[1] = Solid state stability, PXRD; format: physicochemical; parameters: key: X: crystalline; S: stable
Experimental: Thus, the X-ray diffraction patterns of the co-crystals of provided herein were measured on a PANalytical X'PertPRO Powder X-ray diffractometer equipped with goniometer of θ/θ configuration and X'celerator detector. The Cu-anode X-ray tube was operated at 45 kV and 40 mA. The experiments were conducted over the 2θ range of 2.0°-50.0°, 0.030° step size and 189.865 time per step (seconds) and all the co-crystals were characterized with above mentioned method.
(§1) The samples were analyzed by PXRD, assay and related substances by HPLC.

[2] = Solid state stability, impurities by HPLC; format: physicochemical
Experimental: A Zorbax Eclipse XDB C18 column was used with the mobile phase of methanol-acetonitrile-10 mM phosphate buffer solution at the detection wavelength of 350 nm and 260 nm. • Instrumentation: Waters HPLC system having 2695 model pump having UV/PDA detector with Empower chromatography software or its equivalent. • Chemicals: Dipotassium hydrogen phosphate, orthophosphoric acid, acetonitrile, water, sodium hydroxide, methanol. • Column: Zorbax Eclipse XDB C18 column, 250×4.6 mm, 5 μm. • Elution: Gradient. • Flow rate: 0.8 mL/min.
as §1

[3] = Solid state stability, HPLC meloxicam co-crystal assay; format: physicochemical; settings: for A %: Co-former Assay % / M %: Meloxicam Assay %: samples as per Examples 1, 2, 3
Experimental: • Instrumentation: Waters HPLC system having 2695 model pump having UV/PDA detector with Empower chromatography software or its equivalent. • Column: (A) Unison UK C18 column; (B) YMC Trait C18 EXRS Column, 250×4.6 mm, 5.0 micron; (C) Water Atlantis T3, 250×4.6 mm, 5 micron. • Mobile Phase: (A) methanol-acetonitrile-dipotassium phosphate buffer; or (B) acetonitrile-Sodium sulfate buffer solution • Detection wavelength: 210 nm and 360 nm
as §1

[4] = Solid state stability, physical and chemical (PXRD and HPLC), overall finding
Experimental: as §1

[5] = 25° C./60% RH, 1 mo., samples as per Example 7 or 17
[6] = 25° C./60% RH, 2 mo., samples as per Example 7 or 17
[7] = 25° C./60% RH, 3 mo., samples as per Example 7 or 17
[8] = 25° C./60% RH, Initial, samples as per Example 7 or 17
[9] = 40° C./75% RH, 1 mo., samples as per Example 7, 17 or 14
[10] = 40° C./75% RH, 2 mo., samples as per Example 7, 17 or 14
[11] = 40° C./75% RH, 3 mo., samples as per Example 7 or 17
[12] = 40° C./75% RH, Initial, samples as per Example 7, 17 or 14
[13] = 40° C./75% RH and 25° C./60% RH, three months
[14] = 25° C./60% RH, 1 mo., samples as per Examples 1, 2, 3
[15] = 25° C./60% RH, 2 mo., samples as per Examples 1, 2, 3
[16] = 25° C./60% RH, 3 mo., samples as per Examples 1, 2, 3
[17] = 25° C./60% RH, Initial, samples as per Examples 1, 2, 3
[18] = 40° C./75% RH, 1 mo., samples as per Examples 1, 2, 3
[19] = 40° C./75% RH, 2 mo., samples as per Examples 1, 2, 3
[20] = 40° C./75% RH, 3 mo., samples as per Examples 1, 2, 3
[21] = 40° C./75% RH, Initial, samples as per Examples 1, 2, 3

Compound: Cc1cnc(NC(=O)C2=C(O)c3ccccc3S(=O)(=O)N2C)s1.Cc1cnc(NC(=O)C2=C(O)c3ccccc3S(=O)(=O)N2C)s1.O=C(O)CCC(=O)O [Meloxicam:Succinic acid (2:1)]
- PXRD [1, 5]: S
- PXRD [1, 6]: S
- PXRD [1, 7]: S
- PXRD [1, 8]: X
- PXRD [1, 9]: S
- PXRD [1, 10]: S
- PXRD [1, 11]: S
- PXRD [1, 12]: X
- Impurities (% w/w, by HPLC) Ethyl Meloxicam [2, 5]: BDL
- Impurities (% w/w, by HPLC) Methyl Meloxicam [2, 5]: 0.01 % w/w
- Impurities (% w/w, by HPLC) Other* (any other individual impurity) [2, 5]: 0.03 % w/w
- Impurities (% w/w, by HPLC) Total [2, 5]: 0.14 % w/w
- Impurities (% w/w, by HPLC) Ethyl Meloxicam [2, 6]: BDL
- Impurities (% w/w, by HPLC) Methyl Meloxicam [2, 6]: BDL
- Impurities (% w/w, by HPLC) Other* (any other individual impurity) [2, 6]: 0.03 % w/w
- Impurities (% w/w, by HPLC) Total [2, 6]: 0.13 % w/w
- Impurities (% w/w, by HPLC) Ethyl Meloxicam [2, 7]: BDL
- Impurities (% w/w, by HPLC) Methyl Meloxicam [2, 7]: BDL
- Impurities (% w/w, by HPLC) Other* (any other individual impurity) [2, 7]: 0.02 % w/w
- Impurities (% w/w, by HPLC) Total [2, 7]: 0.13 % w/w
- Impurities (% w/w, by HPLC) Ethyl Meloxicam [2, 8]: BDL
- Impurities (% w/w, by HPLC) Methyl Meloxicam [2, 8]: 0.01 % w/w
- Impurities (% w/w, by HPLC) Other* (any other individual impurity) [2, 8]: 0.03 % w/w
- Impurities (% w/w, by HPLC) Total [2, 8]: 0.06 % w/w
- Impurities (% w/w, by HPLC) Ethyl Meloxicam [2, 9]: BDL
- Impurities (% w/w, by HPLC) Methyl Meloxicam [2, 9]: 0.01 % w/w
- Impurities (% w/w, by HPLC) Other* (any other individual impurity) [2, 9]: 0.03 % w/w
- Impurities (% w/w, by HPLC) Total [2, 9]: 0.14 % w/w
- Impurities (% w/w, by HPLC) Ethyl Meloxicam [2, 10]: BDL
- Impurities (% w/w, by HPLC) Methyl Meloxicam [2, 10]: BDL
- Impurities (% w/w, by HPLC) Other* (any other individual impurity) [2, 10]: 0.03 % w/w
- Impurities (% w/w, by HPLC) Total [2, 10]: 0.12 % w/w
- Impurities (% w/w, by HPLC) Ethyl Meloxicam [2, 11]: BDL
- Impurities (% w/w, by HPLC) Methyl Meloxicam [2, 11]: BDL
- Impurities (% w/w, by HPLC) Other* (any other individual impurity) [2, 11]: 0.01 % w/w
- Impurities (% w/w, by HPLC) Total [2, 11]: 0.08 % w/w
- Impurities (% w/w, by HPLC) Ethyl Meloxicam [2, 12]: BDL
- Impurities (% w/w, by HPLC) Methyl Meloxicam [2, 12]: 0.01 % w/w
- Impurities (% w/w, by HPLC) Other* (any other individual impurity) [2, 12]: 0.03 % w/w
- Impurities (% w/w, by HPLC) Total [2, 12]: 0.06 % w/w
- Meloxicam Related Compounds A, B, C, and D by HPLC ([2]; any timepoint from initiation up to 3 months, 40° C./75% RH and 25° C./60% RH): ^#Meloxicam Related Compounds A, B, C, and D (see Table 4a) were not detectable at any timepoint from initiation up to 3 months.
- Assay (% by HPLC) M % (Meloxicam Assay %) [3, 5]: 85.2%
- Assay (% by HPLC) M % (Meloxicam Assay %) [3, 6]: 85.1%
- Assay (% by HPLC) M % (Meloxicam Assay %) [3, 7]: 84.8%
- Assay (% by HPLC) M % (Meloxicam Assay %) [3, 8]: 85.1%
- Assay (% by HPLC) M % (Meloxicam Assay %) [3, 9]: 84.8%
- Assay (% by HPLC) M % (Meloxicam Assay %) [3, 10]: 83.9%
- Assay (% by HPLC) M % (Meloxicam Assay %) [3, 11]: 84.9%
- Assay (% by HPLC) M % (Meloxicam Assay %) [3, 12]: 85.1%
- physical and chemical stability [4, 13]: physically and chemically stable

- pKa (physchem): -0.01
Compound: O=C(O)CCC(=O)O [Succinic acid]

Compound: CC(=O)Oc1ccccc1C(=O)O.Cc1cnc(NC(=O)C2=C(O)c3ccccc3S(=O)(=O)N2C)s1 [Meloxicam:Acetylsalicylic acid (1:1)]
- PXRD [1, 14]: S
- PXRD [1, 15]: S
- PXRD [1, 16]: S
- PXRD [1, 17]: X
- PXRD [1, 18]: S
- PXRD [1, 19]: S
- PXRD [1, 20]: S
- PXRD [1, 21]: X
- A %: Co-former Assay % ([3]; 25° C./60% RH, 1 mo.): 33.4%
- M %: Meloxicam Assay % ([3]; 25° C./60% RH, 1 mo.): 66.0%
- A %: Co-former Assay % ([3]; 25° C./60% RH, 2 mo.): 33.0%
- M %: Meloxicam Assay % ([3]; 25° C./60% RH, 2 mo.): 66.0%
- A %: Co-former Assay % ([3]; 25° C./60% RH, 3 mo.): 33.0%
- M %: Meloxicam Assay % ([3]; 25° C./60% RH, 3 mo.): 65.7%
- A %: Co-former Assay % ([3]; 25° C./60% RH, Initial): 33.6%
- M %: Meloxicam Assay % ([3]; 25° C./60% RH, Initial): 65.7%
- A %: Co-former Assay % ([3]; 40° C./75% RH, 1 mo.): 33.4%
- M %: Meloxicam Assay % ([3]; 40° C./75% RH, 1 mo.): 65.9%
- A %: Co-former Assay % ([3]; 40° C./75% RH, 2 mo.): 32.8%
- M %: Meloxicam Assay % ([3]; 40° C./75% RH, 2 mo.): 65.8%
- A %: Co-former Assay % ([3]; 40° C./75% RH, 3 mo.): 33.0%
- M %: Meloxicam Assay % ([3]; 40° C./75% RH, 3 mo.): 65.4%
- A %: Co-former Assay % ([3]; 40° C./75% RH, Initial): 33.6%
- M %: Meloxicam Assay % ([3]; 40° C./75% RH, Initial): 65.7%
- physical and chemical stability [4, 13]: physically and chemically stable

Compound: Cc1cnc(NC(=O)C2=C(O)c3ccccc3S(=O)(=O)N2C)s1.O=C(O)c1ccccc1O [Meloxicam:Salicylic acid Form III (1:1)]
- PXRD [1, 14]: S
- PXRD [1, 15]: S
- PXRD [1, 16]: S
- PXRD [1, 17]: X
- PXRD [1, 9]: S
- PXRD [1, 18]: S
- PXRD [1, 10]: S
- PXRD [1, 19]: S
- PXRD [1, 20]: S
- PXRD [1, 12]: X
- PXRD [1, 21]: X
- Impurities (% w/w, by HPLC) Ethyl Meloxicam [2, 9]: 0.003 % w/w
- Impurities (% w/w, by HPLC) Other* (any other individual impurity) [2, 9]: 0.01 % w/w
- Impurities (% w/w, by HPLC) Total [2, 9]: 0.04 % w/w
- Impurities (% w/w, by HPLC) Methyl Meloxicam [2, 10]: 0.001 % w/w
- Impurities (% w/w, by HPLC) Other* (any other individual impurity) [2, 10]: 0.01 % w/w
- Impurities (% w/w, by HPLC) Total [2, 10]: 0.01 % w/w
- Impurities (% w/w, by HPLC) Other* (any other individual impurity) [2, 12]: 0.01 % w/w
- Impurities (% w/w, by HPLC) Total [2, 12]: 0.01 % w/w
- Meloxicam Related Compounds A, B, C, and D by HPLC ([2]; any timepoint from initiation up to 2 months, 40° C./75% RH): ^#Meloxicam Related Compounds A, B, C, and D (see Table 4a) were not detectable at any timepoint from initiation up to 2 months.
- M %: Meloxicam Assay % ([3]; 25° C./60% RH, 1 mo.): 71.7%
- A %: Co-former Assay % ([3]; 25° C./60% RH, 2 mo.): 27.2%
- M %: Meloxicam Assay % ([3]; 25° C./60% RH, 2 mo.): 72.0%
- A %: Co-former Assay % ([3]; 25° C./60% RH, 3 mo.): 27.6%
- M %: Meloxicam Assay % ([3]; 25° C./60% RH, 3 mo.): 72.1%
- A %: Co-former Assay % ([3]; 25° C./60% RH, Initial): 27.5%
- M %: Meloxicam Assay % ([3]; 25° C./60% RH, Initial): 71.3%
- Assay (% by HPLC) M % (Meloxicam Assay %) [3, 9]: 71.4%
- M %: Meloxicam Assay % ([3]; 40° C./75% RH, 1 mo.): 72.0%
- Assay (% by HPLC) M % (Meloxicam Assay %) [3, 10]: 71.2%
- A %: Co-former Assay % ([3]; 40° C./75% RH, 2 mo.): 27.0%
- M %: Meloxicam Assay % ([3]; 40° C./75% RH, 2 mo.): 71.5%
- A %: Co-former Assay % ([3]; 40° C./75% RH, 3 mo.): 27.4%
- M %: Meloxicam Assay % ([3]; 40° C./75% RH, 3 mo.): 71.8%
- Assay (% by HPLC) M % (Meloxicam Assay %) [3, 12]: 71.1%
- A %: Co-former Assay % ([3]; 40° C./75% RH, Initial): 27.5%
- M %: Meloxicam Assay % ([3]; 40° C./75% RH, Initial): 71.3%
- physical and chemical stability [4, 13]: physically and chemically stable
- physical and chemical stability ([4]; 40° C./75% RH, at least 2 months): physically and chemically stable
